Article PMC13310753, “Discovery of actinomycin derivatives with improved selectivity against malaria parasites from a Streptomyces culture library” (The Journal of Antibiotics, 2026)
Where two headings read alike, the source gives them in different places. Numbered stars: 1 amine (or outer) side, 2 acyl side, 3 side chain; on linkers, the order of the positions; unused ones are H or OH. Bridge positions count the residues as written; N and C are the ends. Square brackets hold non-standard residues; d marks the D form. Peptide text beside a SMILES is read from it. I, II: the chains in the order shown. Actinocin(1to9) = Cc1c2oc3c(C)ccc(C(=O)[*:2])c3nc-2c(C(=O)[*:1])c(N)c1=O; Actinocin(9to1) = Cc1c2oc3c(C)ccc(C(=O)[*:1])c3nc-2c(C(=O)[*:2])c(N)c1=O; Pro(4-oxo) = O=C1CN[C@H](C(=O)O)C1; Hyp = O=C(O)[CH]1C[CH](O)CN1; NMeV = CN[CH](C(=O)O)C(C)C; Sar = CNCC(=O)O

Tests used:
P. falciparum strain 3D7 = test: microbe, parasite or virus in culture; format: cell-based, Plasmodium falciparum; details: for SI, selectivity index (CC50/IC50): CC50 in AMB cells / IC50 against 3D7; for IC50: Plasmodium falciparum, 3D7, 48 h, read-out: IC50 (50% inhibitory concentration), in vitro antimalarial activity; for antimalarial activity of purified components (in words): bioassay during purification using P. falciparum strains 3D7 and Dd2
Protocol: (§1) Malarial parasite cultures and AMB cells were previously described. The detailed experimental procedure is described in the Supplementary data. Antimalarial activity and cytotoxicity were evaluated at 50% inhibitory concentration (IC50) and 50% cytotoxic concentration (CC50), respectively. We here analyzed these activities on purified actinomycin X2 (1), actinomycin X0ß (2), and commercially available actinomycin D (3). The SI is calculated as CC50/IC50.
(§2) Blood stages of P. falciparum 3D7 cell lines were provided by Nagasaki University with support in part by NEKKEN Bio-Resource Center (NEKKEN BRC), Institute of Tropical Medicine, Nagasaki University as a part of National BioResource Project (NBRP), MEXT, Japan. Human erythrocytes used for parasite culture were obtained from the Japan Red Cross Society (Registration No. 28J0060). The 3D7 parasites were cultivated in O+ erythrocytes in 2% hematocrit in Roswell Park Memorial Institute (RPMI) 1640-based complete medium (CM) supplemented with 5% AB+ human serum (prepared from plasma), 0.25% AlbuMax I (Gibco, Waltham, MA), 12.5 µg/mL gentamycin, and […] hypoxanthine […]
(§3) Primary adult mouse brain (AMB) cells were isolated and established at the NEKKEN Bio-Resource Center, according to previously established methods (Ref. 2). Briefly, the primary cells, which were passaged several times to be adapted to in vitro conditions, were maintained in Minimum Essential Medium (MEM) (Wako Pure Chemicals Industrial Ltd, Osaka, Japan) supplemented with 10% fetal bovine serum (FBS), penicillin/streptomycin solution (100 units/mL penicillin G and […] streptomycin sulfate) (Wako Pure Chemicals Industrial Ltd) and incubated at 37°C and 5% CO2. For the cytotoxicity assay, primary cells that had completed three passages were used.
Antimalarial growth inhibition assays
The antimalarial growth inhibition assay to determine 50% inhibition concentration (IC50) of compounds was performed as described before, with a minor modification (Ref. 3).
Briefly, The P. falciparum cultures (0.75% parasitemia and 2% hematocrit) were seeded on a 96-well black plate with the clear bottom (Thermo Fisher Scientific, Rochester, NY) and […]
exposed to compounds serially diluted threefold over a concentration range of 2.5 µg/mL to 0.13 ng/mL at the final concentration. As a result of the dose-response assay, IC50 value, the concentration of drug required to reduce parasites by 50% (10(log(A/B) × (50 ‒ C)/(D ‒ C) + log(B)) was obtained, where A represents the lowest concentration at which the percentage inhibition was greater than 50%, B is the highest concentration value at which the percentage inhibition was less than 50%, C is the percentage inhibition value of the sample at concentration B, and D is the percentage inhibition value of the sample at concentration A.
The culture plates were kept at 37°C under mixed gas (5% O2, 5% CO2, and 90% N2) for 48 hrs. Each in vitro experiment was performed in duplicate wells and repeated twice. The parasite growth inhibition was obtained by dividing the test samples' parasitemia by the negative controls' average.
SYBR Green – I (Lonza, Rockland, ME) assay technique was used to detect the parasite DNA. The RBCs were lysed after 48 hrs of incubation by adding 100 µL of lysis buffer (20 mM Tris, 10 mM EDTA, 0.01% saponin (wt/vol), and 0.1% Triton X-100 (vol/vol), pH 7.5) and 1× final concentration of SYBR Green - I into each well. The plates were incubated at room temperature for 1 hr with gentle agitation. The relative fluorescence units (RFU) per well were then determined at 485–515 nm (filter) for 0.1 sec per exposure using a multilabel plate reader (ARVO 1430; Perkin Elmer, Waltham, MA, USA).
Cytotoxicity assay was performed to determine 50% cytotoxic concentration (CC50) as previously described with minor modification (Ref. 4). Briefly, AMB cells (1×10^4 cells) were seeded in a 96-well plate (black plate with a clear bottom) and incubated at 37°C in a CO2

[1] = Cytotoxicity assay (Alamar Blue), primary adult mouse brain cells; format: cell-based; details: AMB cells, two independent experiments in duplicate wells, read-out: CC50 (50% cytotoxic concentration)
Protocol: as §1, §2
as §3, with “used. […]” for “used.”
SYBR Green – I (Lonza, Rockland, ME) assay technique was used to detect the parasite DNA. […] The relative fluorescence units (RFU) per well were then determined at 485–515 nm (filter) for 0.1 sec per exposure using a multilabel plate reader (ARVO 1430; Perkin Elmer, Waltham, MA, USA). […]

Compound | SI, selectivity index (CC50/IC50) (P. falciparum strain 3D7) | IC50 (P. falciparum strain 3D7) [nM] | CC50 at 48 h [1] [nM] | SI value relative to that of actinomycin D (P. falciparum strain 3D7) | IC50 (P. falciparum strain 3D7; P. falciparum 3D7, 48 hrs, two independent experiments in duplicate wells) [nM] | antimalarial activity of purified components (in words) (P. falciparum strain 3D7) | SI value relative to that of actinomycin D (P. falciparum strain 3D7; listed as 2) [fold] | CC50 ([1]; 48 hrs) [nM] | SI value relative to that of actinomycin D (P. falciparum strain 3D7; listed as 1) [fold]
Cc1c2oc3c(C)ccc(C(=O)N[C@@H]4C(=O)N[C@H](C(C)C)C(=O)N5CCC[C@H]5C(=O)N(C)CC(=O)N(C)[C@@H](C(C)C)C(=O)O[C@@H]4C)c3nc-2c(C(=O)N[C@@H]2C(=O)N[C@H](C(C)C)C(=O)N3CCC[C@H]3C(=O)N(C)CC(=O)N(C)[C@@H](C(C)C)C(=O)O[C@@H]2C)c(N)c1=O [actinomycin D] (I: T[dV]P[Sar][NMeV] / II: T[dV]P[Sar][NMeV]; ester I:1-I:C, II:1-II:C; linker I:N-II:N via Actinocin(9to1)) | 14.3 | 0.469 | 6.71 | – | – | – | – | – | –
Cc1c2oc3c(C)ccc(C(=O)NC4C(=O)NC(C(C)C)C(=O)N5CCCC5C(=O)N(C)CC(=O)N(C)C(C(C)C)C(=O)OC4C)c3nc-2c(C(=O)NC2C(=O)NC(C(C)C)C(=O)N3CC(O)CC3C(=O)N(C)CC(=O)N(C)C(C(C)C)C(=O)OC2C)c(N)c1=O (centres unmarked) [actinomycin X0ß] (I: TV[Hyp][Sar][NMeV] / II: TVP[Sar][NMeV]; ester I:1-I:C, II:1-II:C; linker I:N-II:N via Actinocin(1to9); configuration not given here) | 106 | – | – | seven | 7.69 | significant antimalarial activity | 7 | 818 | –
Cc1c2oc3c(C)ccc(C(=O)N[C@@H]4C(=O)N[C@H](C(C)C)C(=O)N5CCC[C@H]5C(=O)N(C)CC(=O)N(C)[C@@H](C(C)C)C(=O)O[C@@H]4C)c3nc-2c(C(=O)N[C@@H]2C(=O)N[C@H](C(C)C)C(=O)N3CC(=O)C[C@H]3C(=O)N(C)CC(=O)N(C)[C@@H](C(C)C)C(=O)O[C@@H]2C)c(N)c1=O [actinomycin X2] (I: T[dV][Pro(4-oxo)][Sar][NMeV] / II: T[dV]P[Sar][NMeV]; ester I:1-I:C, II:1-II:C; linker I:N-II:N via Actinocin(1to9)) | 27.9 | 0.241 | 6.71 | – | – | significant antimalarial activity | – | – | 2
